In US5886011A, “Piperidine derivatives as substance P antagonists” (Hisamitsu Pharmaceutical Co., Inc., priority 1995, dated 1999):

What was measured:
[1] = molecular target: T1, Substance P receptor (guinea pig ileum longitudinal muscle) (Cavia porcellus, UniProt P30547); assay: Receptor-binding test ([125I]SP ligand, guinea pig ileum longitudinal muscle receptor samples); conditions: 10^-8 M compound; [125I]SP 50 pM, 22° C., 20 minutes
T1 construct: ileum was removed and the longitudinal muscle was stripped off; from tissue; host or cells: guinea pig ileum longitudinal muscle, washed membrane pellets
T1 sequence (P30547 whole entry): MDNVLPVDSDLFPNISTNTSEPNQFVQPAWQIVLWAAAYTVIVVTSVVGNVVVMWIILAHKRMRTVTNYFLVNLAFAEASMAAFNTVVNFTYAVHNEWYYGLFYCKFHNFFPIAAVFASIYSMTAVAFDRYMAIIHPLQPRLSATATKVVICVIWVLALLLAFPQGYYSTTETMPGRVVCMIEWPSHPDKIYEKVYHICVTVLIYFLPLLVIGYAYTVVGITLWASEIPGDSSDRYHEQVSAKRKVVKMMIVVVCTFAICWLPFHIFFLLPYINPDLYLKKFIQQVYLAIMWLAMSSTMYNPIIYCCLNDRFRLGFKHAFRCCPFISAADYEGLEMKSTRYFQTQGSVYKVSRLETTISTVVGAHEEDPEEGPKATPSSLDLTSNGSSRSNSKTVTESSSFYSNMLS
Experimental: To the longitudinal muscles, 20 times of the wet weight of the buffer solution (1) (50 mM tris-HCl buffer solution containing 2 mM MgCl2 and 0.1 mM phenyl methyl sulfonyl-fluoride, pH 7.4) was added. The mixture was homogenized under ice-cooling and centrifuged at 48,000×G for 15 minutes. After removing the supernatant, the pellets were re-suspended in the buffer solution (1) and centrifuged at 48,000×G for 15 minutes. The buffer solution (2) (50 mM tris.HCl buffer solution containing 10 mM ethylenediaminetetraacetic acid and 300 mM KCl, pH 7.4) was added to the pellets and suspended to be reacted under ice-cooling for 60 minutes. The resulted reaction materials were centrifuged at 48,000×G for 15 minutes. After suspending the pellets in the buffer solution (1) and distributing, the mixture were centrifuged at 48,000×G for 15 minutes. The pellets were stored at -80° C. until used as receptor samples.
Thus obtained receptor samples were suspended in 50 mM tris-HCl buffer solution to be used. As the buffer solution, binding buffer solution (tris.HCl buffer solution containing 0.02% bovine serum albumin, 40 μg/ml bacitracin, 4 μg/ml chymostatin, 4 μg/ml leupeptin and 3 mM MnCl2, pH7.4) was used.

cisplatin-induced emesis = assay: Anti-emetic effect against cisplatin-induced emesis; type: in vivo, ferret (male)
Experimental: D. Anti-emetic Effect against Cisplatin-induced Emesis
The test was carried out using male ferret (approx. 1.5 kg.). Emesis was induced by intraperitoneal administration of cisplatin (10 mg/kg). 1 mg/kg of the subject compounds were administered orally just after the cisplatin administration. The results will be shown in Table 3 as the inhibition rates compared to the control group, using the number of vomits as indexes. Further, for comparisons, the following compounds A and C were used.

[2] = test system: Substance P (guinea pig ileum); assay: Bioassay test: Substance P-induced contraction of guinea pig ileum strips; conditions: 10^-7 M compound; contraction by 10^-8 M Substance P regarded as 100%
Experimental: B. Bioassay Test […] After exsanguinating guinea pigs (body weight: 500-600 g) deadly, ileum was removed and 2 cm of ileum strips were prepared. In a Tyrode's solution (10 ml, 37° C.) in which air is passed, containing 5.2 μM atropine and 4.1 μM indomethacin, the strips having 0.5 g resting tension was suspended, and contractions of muscle were recorded on a recording device (RTA-1200, manufactured by Nihon Kohden) via an isotonic transducer (TB-612T, manufactured by Nihon Kohden). Using three specimens per one group, effects of the subject drugs on the muscle contraction caused by 10^-8 M Substance P were determined.

Substance P = assay: Antagonism test on Substance P-induced airway edema; type: in vivo, guinea pig (hartley male); conditions: Cavia porcellus, po, compared to the control group, read-out: Inhibition Rate (airway edema, dye transudated into trachea and main bronchi); for inhibition in vivo at 1 mg/kg: 1 mg/kg orally, thirty minutes before induction
Experimental: C. Antagonism Test on Substance P-induced Airway Edema
20 mg/kg of Evans' Blue and 1 nm/kg Substance P containing 200 I.U./kg of heparin were administered intravenously to hartley male guinea pigs in order to induce airway edema. After ten minutes, the guinea pigs were exsanguinated deadly. The amounts of the dye transudated into trachea and main bronchi were determined. 1 mg/kg of the subject compounds were administered orally at thirty minutes before the induction. […] Further, for comparison, the following compounds A and B were used.

SD rats = assay: Toxicity test, seven days; type: in vivo, rat (male SD); conditions: 3, 10 and 30 mg/kg, male SD rats
Experimental: 3, 10 and 30 mg/kg of the compound of Example 46 are administered to five male SD rats per one group for seven days. The compound had no influence on body weights gains, organ weights, numbers of erythrocytes nor numbers of leukocytes.

[3] = 1 mg/kg orally just after cisplatin (10 mg/kg i.p.), compared to the control group

Structure (SMILES): Cl.FC(F)(F)Oc1cc2c(c(CN[C@H]3CCCN[C@H]3c3ccccc3)c1)OCC2 [Example 53, (2S,3S)-3-[(5-trifluoromethoxy-2,3-dihydrobenzofuran-7-yl)methyl]amino-2-phenylpiperidine hydrochloride]
- inhibition at 0.01 µM [1]: 53.5%
- Inhibition Rate (number of vomits) (cisplatin-induced emesis; [3]): 65%
- Contriction Inhibition [2]: 69.3%
- inhibition in vivo at 1 mg/kg (Substance P): 69%

Structure (SMILES): Cl.c1ccc([C@@H]2NCCC[C@@H]2NCc2cc(C3CCCC3)cc3c2OCC3)cc1 [Example 25, (2S,3S)-3-[(5-cyclopentyl-2,3-dihydrobenzofuran-7-yl)methyl]amino-2-phenylpiperidine hydrochloride]
- inhibition at 0.01 µM [1]: 89.2%
- Inhibition Rate (number of vomits) (cisplatin-induced emesis; [3]): 73%
- Contriction Inhibition [2]: 85.1%
- inhibition in vivo at 1 mg/kg (Substance P): 90%

Structure (SMILES): CSc1cc2c(c(CN[C@H]3CCCN[C@H]3c3ccccc3)c1)OCC2.Cl [Example 46, (2S,3S)-3-[(5-methylthio-2,3-dihydrobenzofuran-7-yl)methyl]amino-2-phenylpiperidine hydrochloride]
- inhibition at 0.01 µM [1]: 65.3%
- Inhibition Rate (number of vomits) (cisplatin-induced emesis; [3]): 60%
- influence on body weights gains (SD rats): no influence
- influence on numbers of erythrocytes (SD rats): no influence
- influence on numbers of leukocytes (SD rats): no influence
- influence on organ weights (SD rats): no influence
- Contriction Inhibition [2]: 72.3%
- inhibition in vivo at 1 mg/kg (Substance P): 72%

Structure (SMILES): COc1ccc(C(C)C)cc1CN[C@@H]1CN2CCC1CC2.Cl [Compound C, (2S,3S)-N-(5-isopropyl-2-methoxyphenyl)methyl-1-azabicyclo[2,2,2]octane-3-amine hydrochloride, reference compound]
- Inhibition Rate (number of vomits) (cisplatin-induced emesis; [3]): 10%

Structure (SMILES): COc1ccccc1CN[C@H]1CCCN[C@H]1c1ccccc1.Cl [Compound A, (2S,3S)-3-(2-methoxybenzyl)amino-2-phenylpiperidine hydrochloride, reference compound]
- Inhibition Rate (number of vomits) (cisplatin-induced emesis; 10 mg/kg (comparison compound), orally just after cisplatin (10 mg/kg i.p.)): 19%
- inhibition in vivo at 10 mg/kg (Substance P; 10 mg/kg (comparison compound), orally): 12%

Structure (SMILES): CC(C)c1cc2c(c(CN[C@H]3CCCN[C@H]3c3ccccc3)c1)OCC2.Cl [Example 23, (2S,3S)-3-[(5-isopropyl-2,3-dihydrobenzofuran-7-yl)methyl]amino-2-phenylpiperidine hydrochloride]
- inhibition at 0.01 µM [1]: 83.2%
- Inhibition Rate (number of vomits) (cisplatin-induced emesis; [3]): 70%
- Contriction Inhibition [2]: 80.3%
- inhibition in vivo at 1 mg/kg (Substance P): 89%
